The values that follow come from PubChem BioAssay AID330 (DTP/NCI, 2004).

Several values for one entry are separate records, joined by “and”; a condition that tells them apart may be missing. Equal values may be shown once. Inconclusive results and toxic doses are left out. Peptide text beside a SMILES is read from it.

For the assay, the system named is P388 leukemia ip, CD2F1 mice, survival T/C. In words: NCI In Vivo Anticancer Drug Screen. Data for tumor model P388 Leukemia (intraperitoneal) in CD2F1 (CDF1) mice. The following applies: endpoint: median survival time, higher = longer survival. An outline of the steps: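 Mice carrying the transplanted tumor received test compound or vehicle. Survival was recorded in each group, and the value is the treated-group measurement divided by that of the vehicle-treated control group.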

Where [1] appears, read: dose: 50.0 mg/kg/injection, schedule: Q01DX005 (ip), vehicle: saline with Tween-80.
The mark [2] stands for this setting: dose: 100.0 mg/kg/injection, schedule: Q01DX005 (ip), vehicle: saline with Tween-80.
Where [3] appears, read: dose: 200.0 mg/kg/injection, schedule: Q01DX005 (ip), vehicle: saline with Tween-80.
[4] abbreviates: dose: 50.0 mg/kg/injection, schedule: Q01DX009 (ip), vehicle: Klucel (hydroxypropylcellulose) (HPC).
Where [5] appears, read: dose: 100.0 mg/kg/injection, schedule: Q01DX009 (ip), vehicle: Klucel (hydroxypropylcellulose) (HPC).
Setting [6] is: dose: 60.0 mg/kg/injection, schedule: Q01DX005 (ip), vehicle: saline with Tween-80.
[7] abbreviates: dose: 120.0 mg/kg/injection, schedule: Q01DX005 (ip), vehicle: saline with Tween-80.
The mark [8] stands for this setting: dose: 50.0 mg/kg/injection, schedule: Q01DX009 (ip), vehicle: saline with Tween-80.
[9] abbreviates: dose: 100.0 mg/kg/injection, schedule: Q01DX009 (ip), vehicle: saline with Tween-80.
Where [10] appears, read: dose: 200.0 mg/kg/injection, schedule: Q01DX009 (ip), vehicle: saline with Tween-80.
The mark [11] stands for this setting: dose: 50.0 mg/kg/injection, schedule: Q01DX009 (ip), vehicle: saline.
[12] abbreviates: dose: 100.0 mg/kg/injection, schedule: Q01DX009 (ip), vehicle: saline.
Setting [13] is: dose: 200.0 mg/kg/injection, schedule: Q01DX009 (ip), vehicle: saline.
The mark [14] stands for this setting: dose: 60.0 mg/kg/injection, schedule: Q01DX005 (ip), vehicle: Klucel (hydroxypropylcellulose) (HPC).
[15] abbreviates: dose: 120.0 mg/kg/injection, schedule: Q01DX005 (ip), vehicle: Klucel (hydroxypropylcellulose) (HPC).
Setting [16] is: dose: 240.0 mg/kg/injection, schedule: Q01DX005 (ip), vehicle: Klucel (hydroxypropylcellulose) (HPC).
[17] abbreviates: dose: 240.0 mg/kg/injection, schedule: Q01DX005 (ip), vehicle: saline with Tween-80.

As for `Cc1cccc(/C=N/Nc2cc(C)c3cccc(C)c3n2)n1`, the T/C is 100 % of control under setting [1], 89 % of control under setting [2] and 88 % of control under setting [3].
As to `CC(CCc1ccc2c(c1)OCO2)NCC(O)c1ccc(O)c(C(N)=O)c1` (stereo not given), the T/C runs as follows: under setting [4], 93 % of control; under setting [5], 94 % of control; (dose: 200.0 mg/kg/injection, schedule: Q01DX009 (ip), vehicle: Klucel (hydroxypropylcellulose) (HPC)) 100 % of control.
Take `COC(=O)c1nc(N)nc(C(=O)OC)c1C(=O)c1ccc(Cl)c(Cl)c1`: the T/C under setting [6] was 100 % of control and the T/C under setting [7] was 94 % of control.
Take `CCOC(=O)c1c(C)cn[nH]c1=O`: the T/C reads like this: under setting [8], 96 % of control; under setting [9], 99 % of control; under setting [10], 95 % of control.
With `CCOC(=O)C(=O)Cc1ccc(C(=N)N)cc1`, the T/C is, setting by setting: under setting [11], 101 % of control; under setting [12], 96 % of control; under setting [13], 88 % of control.
For `Nn1cn[nH]c1=S`, the T/C (dose: 25.0 mg/kg/injection, schedule: Q01DX009 (ip), vehicle: saline) is 100 % of control; the T/C under setting [11] is 97 % of control; the T/C under setting [12] was 98 % of control; the T/C under setting [13] was 100 % of control.
In the case of `Brc1cc(Br)c(I)c(Br)c1`, the T/C runs as follows: (dose: 100.0 mg/kg/injection, schedule: Q04DX003 (ip), vehicle: other) 95 % of control; (dose: 200.0 mg/kg/injection, schedule: Q04DX003 (ip), vehicle: other) 100 % of control; (dose: 400.0 mg/kg/injection, schedule: Q04DX003 (ip), vehicle: other) 100 % of control.
For `CC(=O)Nc1cc2c(=O)[nH]cnc2c([N+](=O)[O-])c1N(C)[N+](=O)[O-]`, the T/C reads like this: (dose: 5.0 mg/kg/injection, schedule: Q01DX005 (ip), vehicle: other) 101 % of control; (dose: 10.0 mg/kg/injection, schedule: Q01DX005 (ip), vehicle: other) 117 % of control; (dose: 20.0 mg/kg/injection, schedule: Q01DX005 (ip), vehicle: other) 109 % of control; (dose: 40.0 mg/kg/injection, schedule: Q01DX005 (ip), vehicle: other) 102 % of control.
Consider `Cn1c(O)c(N=O)c(=O)[nH]c1=S`, for which the T/C is 101 % of control (dose: 12.5 mg/kg/injection, schedule: Q04DX002 (ip), vehicle: saline) and 103 % of control (dose: 25.0 mg/kg/injection, schedule: Q04DX002 (ip), vehicle: saline).
Regarding `O=C(O)/C=N/NS(=O)(=O)c1cccs1`, the T/C (dose: 12.5 mg/kg/injection, schedule: Q01DX009 (ip), vehicle: other) was 119 % of control.
On to `CN(C)c1ccc(N=O)cc1`, for which the T/C (dose: 1.56 mg/kg/injection, schedule: Q01DX009 (ip), vehicle: saline) is 110 % of control; the T/C (dose: 3.12 mg/kg/injection, schedule: Q01DX009 (ip), vehicle: saline) was 110 % of control; the T/C (dose: 6.25 mg/kg/injection, schedule: Q01DX009 (ip), vehicle: saline) is 94 % of control.
As to `CC1CCCCN1C=C1C(=O)OC(C)(C)OC1=O` (stereo not given), the T/C by setting is: under setting [14], 95 % of control; under setting [15], 96 % of control.
In the case of `CN1CCC(COC(=O)CC(C)(C)C)C1` (stereo not given), the T/C is, setting by setting: (dose: 3.13 mg/kg/injection, schedule: Q01DX009 (ip), vehicle: water) 105 % of control; (dose: 6.25 mg/kg/injection, schedule: Q01DX009 (ip), vehicle: water) 100 % of control; (dose: 12.5 mg/kg/injection, schedule: Q01DX009 (ip), vehicle: water) 99 % of control; (dose: 25.0 mg/kg/injection, schedule: Q01DX009 (ip), vehicle: water) 101 % of control; (dose: 50.0 mg/kg/injection, schedule: Q01DX009 (ip), vehicle: water) 105 % of control; (dose: 100.0 mg/kg/injection, schedule: Q01DX009 (ip), vehicle: water) 101 % of control.
In the case of `O=C1Nc2ncnn2C1=O`, the T/C was 108 % of control under setting [8]; 111 % of control under setting [9]; 99 % of control under setting [10]; 96 % of control (dose: 400.0 mg/kg/injection, schedule: Q01DX009 (ip), vehicle: saline with Tween-80).
In the case of `NC(N)=NS(=O)(=O)c1ccc(N=Nc2c(O)n(-c3ccccc3)c(=S)n(-c3ccccc3)c2=O)cc1`, the T/C under setting [14] is 105 % of control, the T/C under setting [15] was 99 % of control and the T/C under setting [16] is 99 % of control.
Turning to `CN(C)c1ccc([N+]([O-])=Nc2ccc3ccccc3c2)cc1`, the T/C by setting is: (dose: 30.0 mg/kg/injection, schedule: Q01DX005 (ip), vehicle: saline with Tween-80) 96 % of control; under setting [6], 87 % of control and 96 % of control; under setting [7], 89 % of control; under setting [17], 90 % of control.
As for `Cc1ccc2[nH]c(=O)c(=O)[nH]c2c1`, the T/C was 119 % of control (dose: 25.0 mg/kg/injection, schedule: Q01DX009 (ip), vehicle: saline with Tween-80); 103 % of control under setting [8]; 105 % of control under setting [9]; 104 % of control under setting [10].
In the case of `COc1ccc(/C=C2/OC(=O)C(C(C)=O)=C2O)cc1`, the T/C is 115 % of control under setting [4] and 100 % of control under setting [5].
Turning to `CN1CC(C2(O)CCN(C)C2=O)C(O)C1=O` (stereo not given), the T/C by setting is: (dose: 100.0 mg/kg/injection, schedule: Q01DX001 (ip), vehicle: saline) 104 % of control; (dose: 200.0 mg/kg/injection, schedule: Q01DX001 (ip), vehicle: saline) 97 % of control.
For `NC(CO)C(=O)NCCS(=O)(=O)O` (stereo not given), the T/C by setting is: (dose: 60.0 mg/kg/injection, schedule: Q01DX005 (ip), vehicle: saline) 104 % of control; (dose: 120.0 mg/kg/injection, schedule: Q01DX005 (ip), vehicle: saline) 99 % of control; (dose: 240.0 mg/kg/injection, schedule: Q01DX005 (ip), vehicle: saline) 99 % of control.
With `COC(=O)c1cccc2c[n+]3c(cc12)-c1[nH]c2cc(OC)ccc2c1CC3`, the T/C reads like this: under setting [1], 100 % of control; under setting [2], 99 % of control; under setting [3], 108 % of control.
On to `Clc1ccc(OCC(COc2ccc(Cl)cc2)(COc2ccc(Cl)cc2)COc2ccc(Cl)cc2)cc1`, for which the T/C (dose: 7.5 mg/kg/injection, schedule: Q01DX009 (ip), vehicle: saline with Tween-80) is 99 % of control; the T/C (dose: 15.0 mg/kg/injection, schedule: Q01DX009 (ip), vehicle: saline with Tween-80) was 104 % of control; the T/C (dose: 30.0 mg/kg/injection, schedule: Q01DX009 (ip), vehicle: saline with Tween-80) is 95 % of control.
For the compound `CCCCC(CC)(CCN)CCCC`, the T/C is, setting by setting: (dose: 5.0 mg/kg/injection, schedule: Q01DX009 (ip), vehicle: suspension in saline) 107 % of control; (dose: 10.0 mg/kg/injection, schedule: Q01DX009 (ip), vehicle: suspension in saline) 103 % of control; (dose: 20.0 mg/kg/injection, schedule: Q01DX009 (ip), vehicle: suspension in saline) 90 % of control.
`COC(=O)c1nc2n[nH]c(N)c2c2c1CCCCCCCCCC2`: the T/C under setting [6] is 99 % of control, the T/C under setting [7] is 93 % of control and the T/C under setting [17] is 94 % of control.
Regarding `CCC(C)C(N)C(=O)NC(Cc1ccc(O)cc1)C(=O)O` (stereo not drawn) (H-Ile-Tyr-OH; configuration not given here), the T/C runs as follows: under setting [14], 97 % of control; under setting [15], 96 % of control; under setting [16], 99 % of control.
On to `COc1ccc(C2SCC(=O)N2c2nncs2)cc1F` (stereo not given), for which the T/C by setting is: under setting [14], 92 % of control; under setting [15], 96 % of control; under setting [16], 92 % of control.
As for `Cc1cc[c]([Sb]2[O]C(CO)C(C(O)C(O)C(=O)O)[O]2)cc1` (stereo not given), the T/C (dose: 25.0 mg/kg/injection, schedule: Q01DX005 (ip), vehicle: saline) is 101 % of control and 104 % of control and 105 % of control.
